Reference: patent publication US20180148418A1, “AMIDO-SUBSTITUTED CYCLOHEXANE DERIVATIVES” (Bayer Pharma Aktiengesellschaft, priority 2015, published 2018)

Target: T1, TNKS1 (Homo sapiens, UniProt O95271)
T1 construct: purchased BPS Bioscience, San Diego, USA 80579 (TNKS1 Histone Ribosylation Assay Kit)
T1 sequence (O95271 1-1327): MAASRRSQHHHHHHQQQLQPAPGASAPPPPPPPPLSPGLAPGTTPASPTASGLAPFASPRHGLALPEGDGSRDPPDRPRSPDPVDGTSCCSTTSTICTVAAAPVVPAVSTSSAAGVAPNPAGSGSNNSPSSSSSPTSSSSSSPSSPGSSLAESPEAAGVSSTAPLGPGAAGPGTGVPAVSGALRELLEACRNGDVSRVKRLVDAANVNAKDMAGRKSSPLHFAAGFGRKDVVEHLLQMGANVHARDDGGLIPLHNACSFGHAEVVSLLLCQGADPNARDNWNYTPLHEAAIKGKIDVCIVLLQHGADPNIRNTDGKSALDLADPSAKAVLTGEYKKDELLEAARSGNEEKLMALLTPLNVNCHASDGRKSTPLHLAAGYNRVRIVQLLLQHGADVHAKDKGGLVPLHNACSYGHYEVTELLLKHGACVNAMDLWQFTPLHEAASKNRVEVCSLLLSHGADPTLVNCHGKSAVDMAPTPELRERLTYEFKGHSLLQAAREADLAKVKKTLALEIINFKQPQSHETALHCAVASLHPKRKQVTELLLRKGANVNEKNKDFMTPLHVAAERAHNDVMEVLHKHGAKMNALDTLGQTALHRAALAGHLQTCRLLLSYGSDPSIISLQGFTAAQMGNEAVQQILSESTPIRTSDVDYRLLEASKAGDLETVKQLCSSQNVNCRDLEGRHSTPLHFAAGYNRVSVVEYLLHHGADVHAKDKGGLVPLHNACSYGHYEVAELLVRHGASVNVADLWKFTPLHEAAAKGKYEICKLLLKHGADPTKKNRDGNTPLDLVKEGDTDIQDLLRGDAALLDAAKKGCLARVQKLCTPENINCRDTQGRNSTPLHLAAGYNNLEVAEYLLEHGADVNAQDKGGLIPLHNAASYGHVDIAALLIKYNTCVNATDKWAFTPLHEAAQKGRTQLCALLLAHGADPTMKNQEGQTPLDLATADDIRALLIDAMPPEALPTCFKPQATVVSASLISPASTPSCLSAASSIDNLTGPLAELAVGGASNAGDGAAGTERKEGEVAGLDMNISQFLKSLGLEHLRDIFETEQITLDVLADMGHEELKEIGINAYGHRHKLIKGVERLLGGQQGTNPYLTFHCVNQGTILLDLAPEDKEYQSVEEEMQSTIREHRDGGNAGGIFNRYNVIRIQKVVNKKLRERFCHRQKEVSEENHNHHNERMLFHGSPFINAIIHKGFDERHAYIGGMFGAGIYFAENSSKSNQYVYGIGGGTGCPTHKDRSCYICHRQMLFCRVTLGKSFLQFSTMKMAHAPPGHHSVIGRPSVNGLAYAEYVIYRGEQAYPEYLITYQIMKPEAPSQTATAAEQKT
Assay: TNKS1 Assay B (auto-parsylation, [3H]-NAD+ SPA)
Format: biochemical
Details: 6 nM TNKS1, auto-parsylation, over night at room temperature

IC50	SMILES
530 nM	O=C(N[C@H]1CC[C@H](C(=O)Nc2ccc(F)cc2Cl)CC1)c1cnc2ccc(Cl)nn12 [Example 47, 6-chloro-N-{trans-4-[(2-chloro-4-fluorophenyl)carbamoyl]cyclohexyl}imidazo[1,2-b]pyridazine-3-carboxamide]
410 nM	O=C(N[C@H]1CC[C@H](C(=O)Nc2ccc(F)cc2Cl)CC1)c1cnc2ccc(N3CCOCC3)nn12 [Example 48, N-{trans-4-[(2-chloro-4-fluorophenyl)carbamoyl]cyclohexyl}-6-(morpholin-4-yl)imidazo[1,2-b]pyridazine-3-carboxamide]
400 nM	CN1CCN(c2ccc3ncc(C(=O)N[C@H]4CC[C@H](C(=O)Nc5ccc(F)cc5Cl)CC4)n3n2)CC1 [Example 49, N-{trans-4-[(2-chloro-4-fluorophenyl)carbamoyl]cyclohexyl}-6-(4-methylpiperazin-1-yl)imidazo[1,2-b]pyridazine-3-carboxamide]
110 nM	COc1ccc2ncc(C(=O)N[C@H]3CC[C@H](C(=O)Nc4ccc(F)cc4Cl)CC3)n2n1 [Example 50, N-{trans-4-[(2-chloro-4-fluorophenyl)carbamoyl]cyclohexyl}-6-methoxyimidazo[1,2-b]pyridazine-3-carboxamide]
83 nM	O=C(N[C@H]1CC[C@H](C(=O)Nc2ccc(F)cc2Cl)CC1)c1cnc2ccc(N3CCCC3)nn12 [Example 51, N-{trans-4-[(2-chloro-4-fluorophenyl)carbamoyl]cyclohexyl}-6-(pyrrolidin-1-yl)imidazo[1,2-b]pyridazine-3-carboxamide]
22 nM	CN(C)c1ccc2ncc(C(=O)N[C@H]3CC[C@H](C(=O)Nc4ccc(F)cc4Cl)CC3)n2n1 [Example 52, N-{trans-4-[(2-chloro-4-fluorophenyl)carbamoyl]cyclohexyl}-6-(dimethylamino)imidazo[1,2-b]pyridazine-3-carboxamide]
150 nM	CNc1ccc2ncc(C(=O)N[C@H]3CC[C@H](C(=O)Nc4ccc(F)cc4Cl)CC3)n2n1 [Example 53, N-{trans-4-[(2-chloro-4-fluorophenyl)carbamoyl]cyclohexyl}-6-(methylamino)imidazo[1,2-b]pyridazine-3-carboxamide]
740 nM	Cc1c(C(C)O)cnc2c(C(=O)N[C@H]3CC[C@H](C(=O)Nc4ccc(F)cc4Cl)CC3)cnn12 (stereo partly drawn) [Example 58, N-{trans-4-[(2-chloro-4-fluorophenyl)carbamoyl]cyclohexyl}-6-(1-hydroxyethyl)-7-methylpyrazolo[1,5-a]pyrimidine-3-carboxamide]
950 nM	Nc1nn2cccnc2c1C(=O)N[C@H]1CC[C@H](C(=O)Nc2ccc(F)cc2Cl)CC1 [Example 59, 2-amino-N-{trans-4-[(2-chloro-4-fluorophenyl)carbamoyl]cyclohexyl}pyrazolo[1,5-a]pyrimidine-3-carboxamide]
> 10000 nM	Cc1cc(C(C)(C)C)n2ncc(C(=O)N[C@H]3CC[C@H](C(=O)Nc4ccc(F)cc4Cl)CC3)c2n1 [Example 60, 7-tert-butyl-N-{trans-4-[(2-chloro-4-fluorophenyl)carbamoyl]cyclohexyl}-5-methylpyrazolo[1,5-a]pyrimidine-3-carboxamide]
120 nM	Cc1cnc2c(C(=O)N[C@H]3CC[C@H](C(=O)Nc4ccc(F)cc4Cl)CC3)cnn2c1 [Example 61, N-{trans-4-[(2-chloro-4-fluorophenyl)carbamoyl]cyclohexyl}-6-methylpyrazolo[1,5-a]pyrimidine-3-carboxamide]
> 10000 nM	Cc1cc(C2CC2)nc2c(C(=O)N[C@H]3CC[C@H](C(=O)Nc4ccc(F)cc4Cl)CC3)cnn12 [Example 62, N-{trans-4-[(2-chloro-4-fluorophenyl)carbamoyl]cyclohexyl}-5-cyclopropyl-7-methylpyrazolo[1,5-a]pyrimidine-3-carboxamide]
57 nM	CNC(=O)c1nc[nH]c1C(=O)N[C@H]1CC[C@H](C(=O)Nc2cc(C)c(F)cc2Cl)CC1 [Example 63, N^5-{trans-4-[(2-chloro-4-fluoro-5-methylphenyl)carbamoyl]cyclohexyl}-N^4-methyl-1H-imidazole-4,5-dicarboxamide]
59 nM	Cc1cc(NC(=O)[C@H]2CC[C@H](NC(=O)c3[nH]cnc3C(=O)NCC3CCCO3)CC2)c(Cl)cc1F (stereo partly drawn) [Example 64, N^5-{trans-4-[(2-chloro-4-fluoro-5-methylphenyl)carbamoyl]cyclohexyl}-N^4-(tetrahydrofuran-2-ylmethyl)-1H-imidazole-4,5-dicarboxamide]
170 nM	COCC(C)NC(=O)c1nc[nH]c1C(=O)N[C@H]1CC[C@H](C(=O)Nc2c(F)cc(F)cc2Cl)CC1 (stereo partly drawn) [Example 65, N^5-{trans-4-[(2-chloro-4,6-difluorophenyl)carbamoyl]cyclohexyl}-N^4-(1-methoxypropan-2-yl)-1H-imidazole-4,5-dicarboxamide]
310 nM	COC[C@H](C)NC(=O)c1nc[nH]c1C(=O)N[C@H]1CC[C@H](C(=O)Nc2c(F)cc(F)cc2Cl)CC1 [Example 66, N^5-{trans-4-[(2-chloro-4,6-difluorophenyl)carbamoyl]cyclohexyl}-N^4-[(2S)-1-methoxypropan-2-yl]-1H-imidazole-4,5-dicarboxamide]
250 nM	COC[C@@H](C)NC(=O)c1nc[nH]c1C(=O)N[C@H]1CC[C@H](C(=O)Nc2c(F)cc(F)cc2Cl)CC1 [Example 67, N^5-{trans-4-[(2-chloro-4,6-difluorophenyl)carbamoyl]cyclohexyl}-N^4-[(2R)-1-methoxypropan-2-yl]-1H-imidazole-4,5-dicarboxamide]
60 nM	COC(C)CNC(=O)c1nc[nH]c1C(=O)N[C@H]1CC[C@H](C(=O)Nc2c(F)cc(F)cc2Cl)CC1 (stereo partly drawn) [Example 68, N^5-{trans-4-[(2-chloro-4,6-difluorophenyl)carbamoyl]cyclohexyl}-N^4-(2-methoxypropyl)-1H-imidazole-4,5-dicarboxamide]
57 nM	O=C(NCC1CCCO1)c1nc[nH]c1C(=O)N[C@H]1CC[C@H](C(=O)Nc2c(F)cc(F)cc2Cl)CC1 (stereo partly drawn) [Example 69, N^5-{trans-4-[(2-chloro-4,6-difluorophenyl)carbamoyl]cyclohexyl}-N^4-(tetrahydrofuran-2-ylmethyl)-1H-imidazole-4,5-dicarboxamide]
78 nM	O=C(NC[C@H]1CCCO1)c1nc[nH]c1C(=O)N[C@H]1CC[C@H](C(=O)Nc2c(F)cc(F)cc2Cl)CC1 [Example 70, N^5-{trans-4-[(2-chloro-4,6-difluorophenyl)carbamoyl]cyclohexyl}-N^4-[(2R)-tetrahydrofuran-2-ylmethyl]-1H-imidazole-4,5-dicarboxamide]
55 nM	O=C(N[C@H]1CC[C@H](C(=O)Nc2ccc(F)cc2Cl)CC1)c1[nH]cnc1C(=O)N1CC(F)(F)C1 [Example 72, N-{trans-4-[(2-chloro-4-fluorophenyl)carbamoyl]cyclohexyl}-4-[(3,3-difluoroazetidin-1-yl)carbonyl]-1H-imidazole-5-carboxamide]
270 nM	COC(C)(C)CNC(=O)c1nc[nH]c1C(=O)N[C@H]1CC[C@H](C(=O)Nc2ccc(F)cc2Cl)CC1 [Example 73, N^5-{trans-4-[(2-chloro-4-fluorophenyl)carbamoyl]cyclohexyl}-N^4-(2-methoxy-2-methylpropyl)-1H-imidazole-4,5-dicarboxamide]
84 nM	O=C(NCCC1CC1)c1nc[nH]c1C(=O)N[C@H]1CC[C@H](C(=O)Nc2ccc(F)cc2Cl)CC1 [Example 74, N^5-{trans-4-[(2-chloro-4-fluorophenyl)carbamoyl]cyclohexyl}-N^4-(2-cyclopropylethyl)-1H-imidazole-4,5-dicarboxamide]
84 nM	CC(C)(O)CNC(=O)c1nc[nH]c1C(=O)N[C@H]1CC[C@H](C(=O)Nc2ccc(F)cc2Cl)CC1 [Example 75, N^5-{trans-4-[(2-chloro-4-fluorophenyl)carbamoyl]cyclohexyl}-N^4-(2-hydroxy-2-methylpropyl)-1H-imidazole-4,5-dicarboxamide]
94 nM	CC(C)OCCNC(=O)c1nc[nH]c1C(=O)N[C@H]1CC[C@H](C(=O)Nc2ccc(F)cc2Cl)CC1 [Example 76, N^5-{trans-4-[(2-chloro-4-fluorophenyl)carbamoyl]cyclohexyl}-N^4-(2-isopropoxyethyl)-1H-imidazole-4,5-dicarboxamide]
